From patent publication US12344879B2, “Transgenic bacteria with expanded amino acid usage and nucleic acid molecules for use in the same” (BOARD OF REGENTS, THE UNIVERSITY OF TEXAS SYSTEM, priority 2015, dated 2025)

Key:
[1] = test system: human cellular glutathione peroxidase (GPx-1) codon 49; assay: Selenocysteine incorporation into GPx-1 U49 by intact mass spectrometry; set-up: species or system E. coli RTΔA.2; details: GPx-1 U49, pGPx-U49-AU and pRSF-eSelAK
Experimental: RTΔA.2 transformants containing pGPx-U49-AU and pRSF-eSelAK were cultured as described previously for azurin. Cells were harvested by centrifugation and resuspended in 50 mL of buffer (50 mM Potassium Phosphate, 150 mM NaCl, 10% glycerol, 1 mM DTT at pH 8.0) and lysozyme at 1 mg·mL^−1. Cells were lysed by sonication and clarified prior to GPx-1 recovery by IMAC. Eluate was concentrated and dialyzed against 100 mM phosphate buffer pH 8.0, 0.1% Tween 20 and 1 mM DTT followed by isolation of GPx-1 by anion exchange chromatography (Q HP column). GPx-1 was produced with a yield of 500 μg·L^−1 and close to 100% selenocysteine incorporation efficiency.
Intact protein samples were analyzed using methods described previously (Ellefson et al., 2014). Azurin, DHFR and GPx-1 samples were buffer exchanged into LC-MS grade water using 10 kDa molecular weight cutoff filters. Once the buffer exchange was complete the samples were diluted to 20 μM in a methanol/water/formic acid (50/49/1) solution. […] UVPD mass spectra were also deconvoluted using Xtract and then analyzed using ProsightPC 3.0. […] Incorporation efficiencies were calculated by dividing the area of the modified protein peak by the summed areas of the unmodified protein peak and the modified protein peak. […]

[2] = test system: NMC-A β-lactamase reporter (C69X); assay: NMC-A β-lactamase reporter assay (ampicillin resistance by amber suppression with selenocysteine); type: cell-based, E. coli DHΔabc; details: NMC-A C69X reporter, DHΔabc
From the text: A method of genetic selection capable of discriminating different levels of selenocysteine incorporation was developed. To specifically ‘addict’ a reporter protein to selenocysteine rather than serine, the NMC-A β-lactamase from Enterobacter cloacae was used. […] Then cysteine 69 was replaced with an amber stop codon (X69; FIG. 1a) for library selection, hypothesizing that the incorporation of selenocysteine and the formation of a selenyl-sulfhydryl bond would restore activity. (Swardn et al., 1998)
To eliminate any crosstalk between the tRNA^Sec library and the endogenous selenocysteine incorporation machinery, the selA, selB and selC genes (encoding SelA, SelB and tRNA^Sec respectively) were deleted from E. coli DH10B (designated DHΔabc). Cells containing the reporter plasmid pNMC-A C69X and the accessory plasmid pRSF-eSelA (expressing SelA) were transformed with plasmid pMB1-ZU containing the tRNA^Sec antideterminant library. Transformants were plated on media containing a gradient of ampicillin concentrations for selection of mutants capable of selenocysteine-specific suppression. The single colonies that arose covered a range of ampicillin concentrations. […] Of these tRNA^Sec variants, only G7-C66:U49-G65:C50-U64 was detected at the two highest ampicillin concentration (200 and 250 μg·ml^−1).
The tRNA^Sec antideterminant library was generated by enzymatic inverse PCR using oligonucleotide primers (Table 2) to randomize the six positions identified as the main antideterminant for EF-Tu binding. Following self ligation for 16 hours, DNA was ethanol precipitated with GlycoBlue (Ambion) and transformed by electroporation into E. coli DHΔabc containing the plasmids pNMC-A C69X and pRSF-eSelA. Transformants were diluted in 200 ml LB medium containing 12.5 μg·mL^−1 Zeocin, 6.25 μg·mL^−1 tetracycline and 25 μg·mL^−1 kanamycin and incubated overnight. Following overnight growth, cells were diluted 1/50 in LB medium containing 6.25 μg·mL^−1 Zeocin, 3.75 μg·mL^−1 tetracycline, 12.5 μg·mL^−1 kanamycin, 1 μM Na2SeO3 and 20 μg·mL^−1 L-cysteine and incubated for one hour. A series of 250 μl aliquots of cells were plated on LB agar containing 6.25 μg·mL^−1 Zeocin, 3.75 μg·mL^−1 tetracycline, 12.5 […], 1 μM Na2SeO3 and 20 μg·mL^−1 L-cysteine and 50-300 μg·mL^−1 ampicillin in 50 μg·mL^−1 increments. After 20 hours at 37° C. individual colonies were observed on plates containing 50-200 μg·mL^−1 ampicillin. Plasmid DNA was isolated from a selection of colonies from all plates and tRNA^Sec mutations determined by Sanger sequencing.
NotI/NcoI fragments containing tRNA^SecUx were subcloned into pRSF-eSelA to generate pRSF-UX-eSelA. pRSF-U-eSelA variants described in Table 1 were transformed into E. coli DHΔabc containing the reporter plasmid pNMC-A C69TAG. DHΔabc cells containing pNMC-A and pRSFDuet-1 were used as a positive control. DHΔabc cells harboring pNMC-A C69S and pRSF-UX-eSelA, and pNMC-A C69TAG and pRSF-UX-ΔSelA were used as controls for selenocysteine dependent β-lactamase activity. Transformants were cultured overnight in LB medium containing 6.25 μg·mL^−1 tetracycline, 25 μg·mL^−1 kanamycin, 1 μM Na2SeO3 and 20 […]. Following overnight growth, cells were diluted 1/10 in LB medium containing antibiotics, selenite and L-cysteine and incubated for three hours. […]

[3] = test system: E. coli formate dehydrogenase H (FdhH); assay: Benzyl viologen assay; type: cell-based, E. coli DHΔabcF; details: FdhH U140TAG or U140S reporter, co-expressed with SelA, anaerobic
Experimental: The tRNA^Sec variant containing the G7-C66:U49-G65:C50-U64 (SEQ ID NO: 18) antideterminant sequence was designated tRNA^SecUx and was compared with the previously designed chimera (tRNA^UTu) and with a tRNA^Sec derivative designed to have an antideterminant region that should tightly bind EF-Tu (tRNA^UG; FIG. 2a). […] The hybrid tRNA^UTu incorporated selenocysteine and could grow on 75 μg·ml^−1. […] To further confirm tRNA^SecUx incorporated selenocysteine in response to amber stop codons, a standard colorimetric assay was employed based on the activity of the endogenous E. coli selenoprotein formate dehydrogenase H (FdhH) (FIG. 2b).
E. coli DH10B cells containing pRSFDuet-1 and pcat-pheS were used as a positive control. DHΔabcF cells harboring p15A-fdhF U140S and pRSF-UX-eSelA, and p15A-fdhF U140X and pRSF-UX-ΔSelA were used as controls for selenocysteine dependent formate dehydrogenase activity. Transformants were grown overnight at 37° C. in LB medium supplemented with 12.5 μg·mL^−1 tetracycline and 50 μg·mL^−1 kanamycin. Overnight cultures were diluted 1/20 in a final volume of 2 ml and incubated for three hours. Cultures were normalized to OD600=0.5 and 5 μl aliquots were dotted on LB agar plates containing 3.75 μg·mL^−1 tetracycline, 12.5 μg·mL^−1 kanamycin, 5 mM sodium formate, 10 μM Na2MoO4, 1 μM Na2SeO3 and 20 μg·mL^−1 L-cysteine. Plates were incubated at 37° C. for 3 h under aerobic conditions and then transferred to anaerobic conditions at 37° C. for 60 h. Upon removal from the anaerobic chamber, plates were immediately overlaid with agar containing 1 mg·mL^−1 benzyl viologen, 250 mM sodium formate and 25 mM KH2PO4 at pH 7.0. Plates were photographed within 1 h of overlaying.

Row | Molecule | production of active β-lactamase [2] | also measured
1 | GPx-1: Recombinant human cellular glutathione peroxidase with selenocysteine at codon 49 |  | selenocysteine incorporation efficiency in GPx-1 [1]: ~100%
2 | tRNA^SecCUA: Parental E. coli tRNA^Sec containing a CUA anticodon [reference compound] | failed to produce active β-lactamase | 
3 | FdhH U140S: E. coli formate dehydrogenase H with serine in place of selenocysteine 140 (protein, UniProt P07658 1-715, looked up, variant U140S) Formate dehydrogenase H: MKKVVTVCPYCASGCKINLVVDNGKIVRAEAAQGKTNQGTLCLKGYYGWDFINDTQILTPRLKTPMIRRQRGGKLEPVSWDEALNYVAERLSAIKEKYGPDAIQTTGSSRGTGNETNYVMQKFARAVIGTNNVDCCARVSHGPSVAGLHQSVGNGAMSNAINEIDNTDLVFVFGYNPADSHPIVANHVINAKRNGAKIIVCDPRKIETARIADMHIALKNGSNIALLNAMGHVIIEENLYDKAFVASRTEGFEEYRKIVEGYTPESVEDITGVSASEIRQAARMYAQAKSAAILWGMGVTQFYQGVETVRSLTSLAMLTGNLGKPHAGVNPVRGQNNVQGACDMGALPDTYPGYQYVKDPANREKFAKAWGVESLPAHTGYRISELPHRAAHGEVRAAYIMGEDPLQTDAELSAVRKAFEDLELVIVQDIFMTKTASAADVILPSTSWGEHEGVFTAADRGFQRFFKAVEPKWDLKTDWQIISEIATRMGYPMHYNNTQEIWDELRHLCPDFYGATYEKMGELGFIQWPCRDTSDADQGTSYLFKEKFDTPNGLAQFFTCDWVAPIDKLTDEYPMVLSTVREVGHYSCRSMTGNCAALAALADEPGYAQINTEDAKRLGIEDEALVWVHSRKGKIITRAQVSDRPNKGAIYMTYQWWIGACNELVTENLSPITKTPEYKYCAVRVEPIADQRAAEQYVIDEYNKLKTRLREAALA |  | FdhH activity (reduction of benzyl viologen) [3]: completely inactive
4 | tRNA^UG: tRNA^Sec derivative with strong EF-Tu binding region from the major E. coli tRNA^Gly (nucleic acid, expressed or natural sequence) GGAAGATGGTCGTCTCCGGTGAGGCGGCTGGACTCTAAATCCAGTTGGGGCCGCCAGCGGTCCCGGCGAGGTTCGACTCCTCGTATCTTCCGCCA | failed to produce active β-lactamase | 
